Where a name gives a salt, the structure may show the parent alone. Read-outs that look alike come from different tables or passages of the source.
Experiments:
[1] = biological target: acetylcholinesterase (AChE, electric eel) (Electrophorus electricus, UniProt O42275); conditions: for Grade of inhibition in% AChE / Ki' (uncompetitive inhibition) / Ki: mean ± SE; for Type of Inhibition / Ki' (uncompetitive inhibition) / Ki: AChE, electric eel; for Ki: read-out: Ki (competitive inhibition)
Description: (§1) In this study, carboxamides with different triterpenoic backbones (ursolic, oleanolic, maslinic, betulinic, and platanic acids), and various amine residues (Scheme 1), were investigated.
(§2) A TECAN SpectraFluorPlus working in the kinetic mode and measuring the absorbance at λ = 415 nm was used for the enzymatic studies. Acetylcholinesterase (from Electrophorus electricus), 5,5′-dithiobis-(2-nitrobenzoic acid) (DTNB) and acetylthiocholine iodide were purchased from Sigma. Butyrylcholinesterase (from equine serum) was purchased from Fluka. Preparation of the solutions, assay procedure, as well as molecular modeling conditions can be found in the Supplementary Materials.
(§3) 3.1 Preparation of the solutions
(§4) Preparation of 50 mM Tris-HCl buffer solutions: Tris(hydroxymethyl)-aminomethane (606 mg) was dissolved in bidestilled water (100 mL) and adjusted with HCl to a pH of 8.0 ± 0.1. Buffers were freshly prepared and stored in the refrigerator. AChE solution 2.005 U/mL: the enzyme (271 U/mg, 0.037 mg) was dissolved in freshly prepared buffer pH 8.0 (5 mL) containing NaN3 (0.98 mg). BChE solution 2.040 U/mL: the enzyme (7.54 U/mg, 1.353 mg) was dissolved in freshly prepared buffer pH 8.0 (5 mL) containing NaN3 (0.98 mg). DTNB solution 3 mM: DTNB (23.8 mg) was dissolved in freshly prepared buffer pH 8.0 (20 mL) containing NaCl (116.8 mg) and MgCl2 (38.0 mg). ATChI solution 15 mM:
(§5) ATChI (43.4 mg) was dissolved in bidestilled water (10 mL). All solutions were stored in Eppendorf caps in the refrigerator or in the freezer, if necessary. The pure compounds were […]
(§6) dissolved in bidistilled water. The final concentrations for the enzymatic assay were obtained by diluting the stock solution with bidistilled water.
(§7) A mixture of the DTNB solution (125 µL), enzyme solution (25 µL) and compounds solutions (25 µL, 3 different concentrations and once blank water) was prepared and incubated at 30 °C for 20 min. The substrate (25 µL, 4 different concentrations) was added to start the enzymatic reaction. The absorbance data (l = 415 nm) was recorded under a controlled temperature of 30 °C for 30 min at 1 min intervals. The substrate concentrations in the test were as follows: […]
(§8) determined as the quotient of the slopes (compound divided by blank) of the linear ranges.
(§9) The used substrate concentration was 0.625 mM. The absorbance data was recorded under a controlled temperature of 30 °C for 10 min.

[2] = biological target: T1, butyrylcholinesterase (BChE, equine serum) (Equus caballus, UniProt P81908); assay: Ellman's assay, butyrylcholinesterase inhibition; type: biochemical; conditions: for Grade of inhibition in% BChE: mean ± SE; for selectivity F (percent inhibition for AChE divided by percent inhibition for BChE): towards BChE
T1 construct: Butyrylcholinesterase (from equine serum) was purchased from Fluka; purchased Fluka; host or cells: equine serum
Description: as §1, §2, §3, §4, §5, §6, §7, §8, §9

[3] = BChE, equine serum, Ellman's assay
[4] = BChE, equine serum, Ellman's assay, read-out: Ki (competitive inhibition)
[5] = read-out: Grade of inhibition in% BChE

Sequence of acetylcholinesterase (AChE, electric eel) (O42275 24-633): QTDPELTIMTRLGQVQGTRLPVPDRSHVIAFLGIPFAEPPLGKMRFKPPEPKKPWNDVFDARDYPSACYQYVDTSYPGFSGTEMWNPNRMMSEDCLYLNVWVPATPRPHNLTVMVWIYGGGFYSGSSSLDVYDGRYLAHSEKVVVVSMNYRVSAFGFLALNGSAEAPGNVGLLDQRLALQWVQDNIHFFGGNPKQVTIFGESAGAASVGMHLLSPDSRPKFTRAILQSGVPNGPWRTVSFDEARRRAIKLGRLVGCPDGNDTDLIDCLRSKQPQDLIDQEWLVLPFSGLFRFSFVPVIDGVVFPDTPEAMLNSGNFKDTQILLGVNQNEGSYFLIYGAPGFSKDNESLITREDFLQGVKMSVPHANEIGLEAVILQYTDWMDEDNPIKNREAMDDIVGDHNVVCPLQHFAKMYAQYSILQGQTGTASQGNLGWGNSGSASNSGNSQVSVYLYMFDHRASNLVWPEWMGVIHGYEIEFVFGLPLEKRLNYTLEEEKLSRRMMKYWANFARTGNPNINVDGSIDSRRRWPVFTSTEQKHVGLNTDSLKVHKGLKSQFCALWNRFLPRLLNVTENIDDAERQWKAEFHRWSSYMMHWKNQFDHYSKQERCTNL
T1 sequence (P81908 whole entry): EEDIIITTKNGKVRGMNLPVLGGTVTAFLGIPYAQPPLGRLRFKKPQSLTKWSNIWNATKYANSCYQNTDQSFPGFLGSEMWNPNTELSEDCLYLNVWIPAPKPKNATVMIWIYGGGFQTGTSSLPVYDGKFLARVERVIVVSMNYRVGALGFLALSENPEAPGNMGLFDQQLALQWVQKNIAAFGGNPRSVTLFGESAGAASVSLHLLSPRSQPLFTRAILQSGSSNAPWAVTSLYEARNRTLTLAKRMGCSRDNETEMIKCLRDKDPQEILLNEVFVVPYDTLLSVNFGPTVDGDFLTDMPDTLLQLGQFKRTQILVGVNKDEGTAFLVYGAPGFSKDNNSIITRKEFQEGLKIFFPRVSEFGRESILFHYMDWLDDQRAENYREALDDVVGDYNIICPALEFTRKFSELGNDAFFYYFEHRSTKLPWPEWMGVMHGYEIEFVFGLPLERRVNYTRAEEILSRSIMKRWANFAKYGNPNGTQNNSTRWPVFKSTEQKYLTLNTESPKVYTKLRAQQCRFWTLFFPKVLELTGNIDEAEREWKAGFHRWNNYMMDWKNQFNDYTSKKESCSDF

| Structure (SMILES) | Grade of inhibition in% AChE ([1]; c = 30 µM) | Grade of inhibition in% BChE ([2]; c = 30 µM) | Grade of inhibition in% AChE ([1]; c = 10 µM) | Grade of inhibition in% BChE ([2]; c = 10 µM) | Type of Inhibition ([2]; BChE, equine serum) | Ki′ (uncompetitive inhibition) [2, 3] | Ki [2, 4] | further results |
| --- | --- | --- | --- | --- | --- | --- | --- | --- |
| CC(=O)OC1CCC2(C)C(CCC3(C)C2CC=C2C4CC(C)(C)CCC4(C(=O)NCCN)CCC23C)C1(C)C (stereo not drawn) [Compound 12, (3β)-N-(2-Aminoethyl)-3-acetyloxy-olean-12-en-28-amide] | 31.69 ± 0.04% | 57.54 ± 0.93% |  |  |  |  |  |  |
| CC(=O)OC1CC2(C)C(CCC3(C)C2CC=C2C4CC(C)(C)CCC4(C(=O)NCCN)CCC23C)C(C)(C)C1OC(C)=O (stereo not drawn) [Compound 13, (2α,3β)-N-(2-Aminoethyl)-2,3-diacetyloxy-olean-12-en-28-amide] |  |  | 31.91 ± 0.32% | 40.83 ± 0.21% |  |  |  |  |
| C=C(C)C1CC[C@]2(C(=O)NCCN)CC[C@]3(C)C(CCC4[C@@]5(C)CC[C@H](OC(C)=O)C(C)(C)C5CC[C@]43C)C12 (stereo partly drawn) [Compound 14] |  |  | 56.17 ± 0.64% | 42.70 ± 1.33% |  |  |  |  |
| CC(=O)O[C@H]1CC[C@]2(C)[C@H]3CC[C@@H]4[C@H]5[C@H](C(C)=O)CC[C@]5(C(=O)NCCN)CC[C@@]4(C)[C@]3(C)CC[C@H]2C1(C)C [Compound 15] |  |  | 44.71 ± 0.24% | 29.55 ± 2.97% | mixed-type | 17.14 ± 1.67 µM | 11.9 ± 1.17 µM | Type of Inhibition [1]: mixed-type; Ki' (uncompetitive inhibition) [1]: 6.83 ± 0.17 µM; Ki [1]: 3.06 ± 0.38 µM |
| C[C@@H]1CC[C@]2(C(=O)NCCN)CC[C@]3(C)C(=CCC4[C@@]5(C)CC[C@H](O)C(C)(C)C5CC[C@]43C)C2[C@H]1C (stereo partly drawn) [Compound 16] |  |  | 28.54 ± 0.51% | 64.10 ± 1.04% | mixed-type | 12.15 ± 0.45 µM | 5.55 ± 0.12 µM |  |
| CC1(C)CC[C@]2(C(=O)NCCN)CC[C@]3(C)C(=CC[C@@H]4[C@@]5(C)CC[C@H](O)C(C)(C)[C@@H]5CC[C@]43C)[C@@H]2C1 [Compound 17, (3β)-N-(2-Aminoethyl)-3-hydroxy-olean-12-en-28-amide] |  |  | 88.61 ± 0.22% | 49.10 ± 0.47% | mixed-type | 7.68 ± 0.61 µM | 1.93 ± 0.13 µM | Type of Inhibition [1]: mixed-type; Ki' (uncompetitive inhibition) [1]: 18.24 ± 0.06 µM; Ki [1]: 8.53 ± 0.34 µM |
| CC1(C)CCC2(C(=O)NCCN)CCC3(C)C(=CCC4C5(C)CC(O)C(O)C(C)(C)C5CCC43C)C2C1 (stereo not drawn) [Compound 18, (2α,3β)-N-(2-Aminoethyl)-2,3-dihydroxy-olean-12-en-28-amide] | 39.15 ± 0.16% | 68.83 ± 1.57% |  |  |  |  |  |  |
| C=C(C)C1CC[C@]2(C(=O)NCCN)CC[C@]3(C)C(CCC4[C@@]5(C)CC[C@H](O)C(C)(C)C5CC[C@]43C)C12 (stereo partly drawn) [Compound 19] |  |  | 62.95 ± 0.61% | 36.70 ± 5.34% |  |  |  |  |
| CC(=O)[C@@H]1CC[C@]2(C(=O)NCCN)CC[C@]3(C)[C@H](CC[C@@H]4[C@@]5(C)CC[C@H](O)C(C)(C)[C@@H]5CC[C@]43C)[C@@H]12 [Compound 20] |  |  | 37.09 ± 0.97% | 12.98 ± 0.35% | mixed-type | > 110 µM | 8.37 ± 0.67 µM | Type of Inhibition [1]: mixed-type; Ki' (uncompetitive inhibition) [1]: 9.71 ± 0.03 µM; Ki [1]: 7.18 ± 0.02 µM |
| CC(=O)O[C@H]1CC[C@@]2(C)C(CC[C@]3(C)C2CC=C2C4[C@@H](C)[C@H](C)CC[C@]4(C(=O)NCCN(C)C)CC[C@]23C)C1(C)C (stereo partly drawn) [Compound 21] |  |  | 10.78 ± 0.12% | 36.50 ± 0.30% | mixed-type | 143.36 ± 0.02 µM | 6.48 ± 0.1 µM |  |
| C=C(C)C1CC[C@]2(C(=O)NCCN(C)C)CC[C@]3(C)C(CCC4[C@@]5(C)CC[C@H](OC(C)=O)C(C)(C)C5CC[C@]43C)C12 (stereo partly drawn) [Compound 24] |  |  | 13.10 ± 1.32% | 67.75 ± 0.69% | mixed-type |  |  |  |
| CC(=O)O[C@H]1CC[C@]2(C)[C@H]3CC[C@@H]4[C@H]5[C@H](C(C)=O)CC[C@]5(C(=O)NCCN(C)C)CC[C@@]4(C)[C@]3(C)CC[C@H]2C1(C)C [Compound 25] |  |  | no inhibition | 88.49 ± 0.58% | mixed-type |  |  |  |
| C[C@@H]1CC[C@]2(C(=O)NCCN(C)C)CC[C@]3(C)C(=CCC4[C@@]5(C)CC[C@H](O)C(C)(C)C5CC[C@]43C)C2[C@H]1C (stereo partly drawn) [Compound 26] | 33.53 ± 0.44% | 77.74 ± 0.59% |  |  | mixed-type | 3.10 ± 0.30 µM | 1.11 ± 0.09 µM |  |
| CN(C)CCNC(=O)C12CCC(C)(C)CC1C1=CCC3C4(C)CCC(O)C(C)(C)C4CCC3(C)C1(C)CC2 (stereo not drawn) [Compound 27, (3β)-N-[2-(Dimethylamino)-ethyl]-3-hydroxy-olean-12-en-28-amide] |  |  | 5.54 ± 0.07% | 67.10 ± 0.07% | mixed-type | 9.07 ± 0.02 µM | 1.31 ± 0.01 µM | selectivity F (percent inhibition for AChE divided by percent inhibition for BChE) [2]: 0.08 |
| CN(C)CCNC(=O)[C@]12CCC(C)(C)C[C@H]1C1=CC[C@@H]3[C@@]4(C)C[C@@H](O)[C@H](O)C(C)(C)[C@@H]4CC[C@@]3(C)[C@]1(C)CC2 [Compound 28, (2α,3β)-N-[2-(Dimethylamino)-ethyl]-2,3-dihydroxy-olean-12-en-28-amide] | 13.47 ± 0.55% | 79.01 ± 0.29% |  |  | mixed-type | 27.26 ± 3.47 µM | 2.2 ± 0.25 µM |  |
| C=C(C)C1CC[C@]2(C(=O)NCCN(C)C)CC[C@]3(C)C(CCC4[C@@]5(C)CC[C@H](O)C(C)(C)C5CC[C@]43C)C12 (stereo partly drawn) [Compound 29] | 22.12 ± 4.01% | 56.68 ± 0.01% |  |  | mixed-type | 16.11 ± 0.18 µM | 3.52 ± 0.07 µM |  |
| CC(=O)[C@@H]1CC[C@]2(C(=O)NCCN(C)C)CC[C@]3(C)[C@H](CC[C@@H]4[C@@]5(C)CC[C@H](O)C(C)(C)[C@@H]5CC[C@]43C)[C@@H]12 [Compound 30] | 28.83 ± 0.80% | 89.76 ± 0.48% |  |  | mixed-type | 4.46 ± 0.01 µM | 1.12 ± 0.01 µM | Type of Inhibition [1]: mixed-type; Ki' (uncompetitive inhibition) [1]: 74.05 ± 4.81 µM; Ki [1]: 15.5 ± 3.91 µM |
| CC(=O)O[C@H]1CC[C@@]2(C)C(CC[C@]3(C)C2CC=C2C4[C@@H](C)[C@H](C)CC[C@]4(C(=O)NCCN4CCCC4)CC[C@]23C)C1(C)C (stereo partly drawn) [Compound 31] |  |  | 14.54 ± 0.36% | 50.49 ± 2.23% | mixed-type | 6.00 ± 0.47 µM | 4.42 ± 0.34 µM | Ki ([2]; experimental Ki restated in docking Table 3, unit inferred, read-out: Ki): 4.42 µM |
| CC(=O)O[C@H]1CC[C@]2(C)[C@H]3CC=C4[C@@H]5CC(C)(C)CC[C@]5(C(=O)NCCN5CCCC5)CC[C@@]4(C)[C@]3(C)CC[C@H]2C1(C)C [Compound 32, (3β)-N-(2-Pyrrolidin-1-ylethyl)-3-acetyloxy-olean-12-en-28-amide] |  |  | 7.29 ± 0.50% | 65.73 ± 0.14% | mixed-type | 29.88 ± 1.13 µM | 2.02 ± 0.56 µM | selectivity F (percent inhibition for AChE divided by percent inhibition for BChE) [2]: 0.11 |
| CC(=O)OC1CC2(C)C(CCC3(C)C2CC=C2C4CC(C)(C)CCC4(C(=O)NCCN4CCCC4)CCC23C)C(C)(C)C1OC(C)=O (stereo not drawn) [Compound 33, (2α,3β)-N-(2-Pyrrolidin-1-ylethyl)-2,3-diacetyloxy-olean-12-en-28-amide] | 23.47 ± 4.59% | 33.01 ± 2.91% |  |  |  |  |  |  |
| COc1ccc2c3c1O[C@H]1C[C@@H](O)C=C[C@@]31CCN(C)C2 [GH, Galantamine hydrobromide, reference compound] |  |  |  |  | competitive |  |  | inhibition at 10 µM [2, 5]: 57.79 ± 0.52%; inhibition at 30 µM [2, 5]: 80.25 ± 0.33% |

From article PMC6429507, “Triterpene-Based Carboxamides Act as Good Inhibitors of Butyrylcholinesterase” (Molecules, 2019)
